Experiments:
[1] = test system: histidine-requiring Salmonella typhimurium TA100 and TA98 strains; assay: Mutagenicity test (reverse mutation test); type: cell-based
Description: In view of their use, it is desirable that the compounds of the invention have no mutagenicity or have little mutagenicity to a level causing no problem. For investigating the gene mutagenesis of the compounds of the invention, herein carried out was a reverse mutation test with histidine-requiring Salmonella typhimurium TA100 and TA98 strains. Two tests were carried out. One is a test for dose determination test; and the other is for mutagenicity.
The test methods and the mutagenicity of the compounds of the invention are mentioned below. In the dose determination test, six doses of 0.160, 0.800, 4.00, 20.0, 100 and 500 μg/plate (common ratio 5) were tried.
As a result of the dose determination test, when the mutagenicity of the test compound was admitted, then the actual test for mutagenicity was carried out, using the dose capable of giving an accurate dose-reaction curve. When no mutagenicity of the test compound was admitted in the dose determination test and when the growth inhibition of the test cells was admitted therein, then the dose to present the growth inhibition was taken as the maximum dose; and when the growth inhibition was not admitted, then a dose of 5000 μg/plate was taken as the maximum dose. With that, the actual test for mutagenicity was carried out on the level of 6 doses (common ratio 2).
First, a test compound was dissolved or suspended in DMSO, then diluted in order to prepare test compound liquids having a varying concentration.
100 μl of a test compound liquid or a negative control (DMSO) solution was put into a sterilized test tube. Then, for the case in the absence of a metabolic activation system (−S9mix), 500 μl of 0.1 mol/liter sodium-phosphate buffer (pH 7.4) was added to it; and for the case in the presence of a metabolic activation system (+S9mix), 500 μl of S9mix was added to it.
Next, 100 μl of the test strain suspension that had been cultivated with shaking at 37° C. for 8 hours was added to it, and preincubated in a shaking thermostat at 37° C. for 20 minutes. After shaken, 2 ml of top agar was added to it, and the contents were mixed.
Next, the mixture was poured onto a minimal glucose agar plate medium (plate) and spread uniformly thereon, then the top agar was solidified, and the plate was transferred into a thermostat and incubated at 37° C. for 48 hours.
Then, the number of the colonies grown through reverse mutation was counted.
For counting it, […]. After area correction and miss-counting correction, the number of the colonies was computed. When the colony analyzer could not be used owing to the deposition of the test compound or the cell growth inhibition, then the number of the colonies was counted with the naked eye.
In case where the number of the colonies through reverse mutation increased two times or more that of the negative control and where the dose dependency or the reproducibility of the increase was admitted, then the tested sample was decided as positive. When the sample was decided as positive, then the relative activity that indicates the relative comparative value of the intensity of the mutagenicity of the test compound was obtained according to the following formula:
Relative Activity={(number of colonies per plate having the concentration)−(number of colonies per negative control plate)}/the value of concentration (mg/plate).

amyloid β protein = target: T1, amyloid β protein (Homo sapiens, UniProt P05067); assay: Staining test on a brain section of an Alzheimer disease patient (amyloid β protein); type: binding, human (Alzheimer disease patient); settings: 100 μM compound in 50% ethanol, 10 minutes, fluorescence microscopy
T1 construct: from tissue; host or cells: paraffin-embedded human brain sections (temporal lobe, hippocampus) of Alzheimer disease patients
T1 sequence (P05067 672-713 limits assumed): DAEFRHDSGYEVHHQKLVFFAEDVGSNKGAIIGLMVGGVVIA
From the text: (1) Brain specimens at the temporal lobe and the hippocampus of patients to which a definitive diagnosis of Alzheimer disease had been given, and those of normal senile persons were used. The specimens were given by our coworker, Fukushimura Hospital, Longevity Medicine Institute, and we were given their consent of use of the specimens for our study purpose by the bereaved of the patients (Fukushimura Hospital Ethical Review Board Approval No. 20).
(2) The paraffin-embedded brain tissue was cut into slices having a thickness of 6 μm or 8 μm, and extended and dried on a slide. The paraffin brain section was processed for paraffin removal in xylene twice for 10 minutes, 100% ethanol twice for 5 minutes, 90% ethanol for 5 minutes and running water for 10 minutes in that order.
(3) For pretreatment prior to the staining treatment with a compound of the invention, the sections were processed for autofluorescence removal with lipofuscin. First, the paraffin-removed sections were dipped in 0.25% KMnO4 solution for 20 minutes. These were washed with PBS, twice for 2 minutes, then dipped in 0.1% K2S2O5/oxalic acid solution for about 5 seconds, and then further washed with PBS, three times for 2 minutes.
(4) About 150 μl of a 100 μM solution of a compound of the invention dissolved in 50% ethanol was dropwise applied to the section and reacted for 10 minutes. After dipped five times in tap water, the section was entrapped with Fluor Save Reagent (Calbiochem), and analyzed through microscopy with a fluorescence microscope (Nikon, Eclipse 80i). The images were taken with a digital camera (Nikon Dxm 1200F or Photometrics' Cool SNAP ES).

[2] = Acute toxicity test, intravenous administration to mice; type: in vivo; settings: mice observed for 7 days
Description: The compounds of the invention were tested for their acute toxicity through intravenous administration thereof to mice. Four Crj:CD1 male mice formed one test group, and some test groups of those mice were used (the mean body weight of the mice of each group was from 31 to 32 g). A test compound was dissolved in a mixture of 1 N HCl, polyethylene glycol-400 and distilled water, or dissolved in DMSO, and then diluted with distilled water. This was administered to each mouse via its tail vein.

[3] = irrespective of the absence or presence of S9mix

| Compound | binding to amyloid β protein in the brain section of an Alzheimer disease patient (amyloid β protein) | further results |
| --- | --- | --- |
| N#CC(C#N)=Cc1ncc(/C=C/c2nc3ccc(OCC(CO)CF)cc3o2)s1 (centres unmarked) [THK-683] | – | relative activity [1, 3]: minus |
| O=C1Nc2ccc(Cl)cc2/C1=C/c1ccc(N2CCOCC2)cc1 [THK-276, 5-chloro-3-(4-morpholin-4-yl-benzylidene)-1,3-dihydroindol-2-one] | bound to the amyloid β protein | – |
| CN(C)c1ccc(/C=C/C23NC(=O)CN2c2ccc(Br)cc2C3(C)C)cc1 (centres unmarked) [THK-556, 7-bromo-9a-[2-(4-dimethylamino-phenyl)-vinyl]-9,9-dimethyl-9,9a-dihydro-1H-imidazo[1,2-a]indol-2-one] | bound to the amyloid β protein | – |
| Cc1ccc2c(c1)C(C)(C)C1(/C=C/C=C/c3ccc(N(C)C)cc3)NC(=O)CCN21 (centres unmarked) [THK-565, 10a-[4-(4-dimethylamino-phenyl)-buta-1,3-dienyl]-8,10,10-trimethyl-3,4,10,10a-tetrahydro-1H-pyrimido[1,2-a]indol-2-one] | bound to the amyloid β protein | – |
| FCCOc1ccc2nc(/C=C/c3cnc(N4CCOCC4)s3)oc2c1 [THK-525, 6-(2-fluoro-ethoxy)-2-[2-(2-morpholin-4-yl-thiazol-5-yl)-vinyl]-benzoxazole] | bound to the amyloid β protein | Maximum Permissible Dose [2]: ≧10 mg/kg; relative activity [1, 3]: minus |
| OCC(CF)Oc1ccc2nc(/C=C/c3cnc(N4CCCOCC4)s3)oc2c1 (centres unmarked) [THK-766, (E)-6-[(1-fluoromethyl-2-hydroxy)ethoxy]-2-[2-(2-homomorpholinothiazol-5-yl)ethenyl]benzoxazole] | The white space arrow indicates amyloid β protein | Maximum Permissible Dose [2]: ≧10 mg/kg |
| COc1ccccc1-c1nnc(-c2ccc(N3CCOCC3)cc2)o1 [THK-385] | bound to the amyloid β protein | – |
| C(=C\c1nc2c(ccc3ccccc32)s1)/c1ccc(N2CCOCC2)cc1 [THK-281, 2-[2-(4-morpholin-4-yl-phenyl)-vinyl]naphthol[1,2-d]thiazole] | bound to the amyloid β protein | – |
| OCC(CF)Oc1ccc2nc(/C=C/c3cnc(N4CCCCC4)s3)oc2c1 (centres unmarked) [THK-713] | – | Maximum Permissible Dose [2]: ≧10 mg/kg; relative activity [1, 3]: minus |
| O=C1Nc2ccc(Cl)cc2/C1=C/c1ccc(N2CCOCC2)s1 [THK-308, 5-chloro-3-(5-morpholin-4-yl-thiophen-2-ylmethylene)-1,3-dihydroindol-2-one] | bound to the amyloid β protein | – |
| OCC(CF)Oc1ccc2nc(/C=C/c3cnc(N4CCCOC4)s3)oc2c1 (centres unmarked) [THK-757, (E)-6-[(1-fluoromethyl-2-hydroxy)ethoxy]-2-[2-[2-([1,3]oxadinan-3-yl)-thiazol-5-yl]ethenyl]benzoxazole] | – | Maximum Permissible Dose [2]: ≧10 mg/kg |
| OCC(CF)Oc1ccc2nc(/C=C/c3cnc(N4CCCCCC4)s3)oc2c1 (centres unmarked) [THK-765, (E)-6-[(1-fluoromethyl-2-hydroxy)ethoxy]-2-[2-[2-(homopiperidin-1-yl)thiazol-5-yl]ethenyl]benzoxazole] | – | Maximum Permissible Dose [2]: ≧10 mg/kg |
| N#C/C(=C\c1ccc(N2CCOCC2)o1)c1nc2ccccc2[nH]1 [THK-203, 2-(1H-benzimidazol-2-yl)-3-(5-morpholin-4-yl-furan-2-yl)-acrylonitrile] | bound to the amyloid β protein | – |
| CC1CN2c3ccccc3C(C)(C)C2(/C=C/c2ccc(N(C)C)cc2)NC1=O (centres unmarked) [THK-559, 10a-[2-(4-dimethylamino-phenyl)-vinyl]-3,10,10-trimethyl-3,4,10,10a-tetrahydro-1H-pyrimido[1,2-a]indol-2-one] | bound to the amyloid β protein | – |
| CN(C)c1ccc(-c2nnc(-c3sc4cc(Cl)ccc4c3Cl)o2)cc1 [THK-262, [4-[5-(3,6-dichloro-benzo[b]thiophen-2-yl)-[1,3,4]oxadiazol-2-yl]-phenyl]-dimethylamine] | bound to the amyloid β protein | – |
| CN(C)c1ccc(/C=C/C23NC(=O)CCN2c2ccc(Br)cc2C3(C)C)cc1 (centres unmarked) [THK-558, 8-bromo-10a-[2-(4-dimethylamino-phenyl)-vinyl]-10,10-dimethyl 1-3,4,10,10a-tetrahydro-1H-pyrimido[1,2-a]indol-2-one] | bound to the amyloid β protein | – |
| CN1CCN(c2ccc(/C=C(\C#N)c3nc4ccccc4[nH]3)o2)CC1 [THK-207, 2-(1H-benzimidazol-2-yl)-3-[5-(4-methyl-piperazin-1-yl)-furan-2-yl]-acrylonitrile] | bound to the amyloid β protein | – |
| CC1(C)c2ccccc2N2CCC(=O)NC21/C=C/c1ccc(N2CCOCC2)cc1 (centres unmarked) [THK-336] | – | relative activity [1, 3]: minus |
| CN(C)c1ccc(/C=C\C=C2C(=O)c3ccccc3C2=O)cc1 [THK-248, 2-[3-(4-dimethylamino-phenyl)-allylidene]-indane-1,3-dione] | bound to the amyloid β protein | – |
| CCN(CC)c1ccc(/C=C/C23NC(=O)CN2c2ccccc2C3(C)C)cc1 (centres unmarked) [THK-563] | bound to the amyloid β protein | – |
| Cc1ccc2c(c1)C(C)(C)[C@@]1(/C=C/C=C/c3ccc(N(C)C)cc3)NC(=O)CCN21 (stereo in doubt) [THK-585, 10a-[4-(4-dimethylamino-phenyl)-buta-1,3-dienyl]-8,10,10-trimethyl-3,4,10,10a-tetrahydro-1H-pyrimido[1,2-a]indol-2-one] | bound to the amyloid β protein | – |
| c1csc(-c2nnc(-c3ccc(N4CCOCC4)cc3)o2)c1 [THK-383, 4-[4-(5-thiophen-2-yl-[1,3,4]oxadiazol-2-yl)-phenyl]-morpholine] | bound to the amyloid β protein | – |
| CN1CCN(c2ncc(/C=C/c3nc4ccc(OC(CO)CF)cc4o3)s2)CC1 (centres unmarked) [THK-707, (E)-6-[(1-fluoromethyl-2-hydroxy)ethoxy]-2-[2-[2-(4-methylpiperazin-1-yl)thiazol-5-yl]ethenyl]benzoxazole] | – | Maximum Permissible Dose [2]: ≧10 mg/kg; relative activity ([1]; in the presence of S9mix): weak |
| CN(C)c1ccc(/C=C/C23NC(=O)CN2c2ccccc2C3(C)C)cc1 (centres unmarked) [THK-562] | bound to the amyloid β protein | – |

— patent publication US20110190492A1, “DIAGNOSTIC PROBE FOR CONFORMATION DISEASE” (TOHOKU UNIVERSITY, priority 2005, published 2011)
